Legend:
Crabgrass (CG) [1] = assay: Pre-emergence herbicide test; assay type: in vivo, Digitaria sanquinalis; conditions: Digitaria sanguinalis, pre-emergence, 336 h; 8 lb/acre; two weeks after treatment
In short: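 Crabgrass (Digitaria sanquinalis) was surface seeded in 3' plastic pots of potting soil, covered with screened soil, and watered by sub-irrigation in greenhouse trays. Pots were seeded one day before spraying in a hood with a moving belt and fixed nozzle. Plants stayed in the greenhouse on sub-irrigation, and pre-emergence control was rated visually two weeks after treatment.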

[2] = test system: Yellow foxtail grass (YF); assay: Pre-emergence herbicide test; assay type: in vivo, Setaria glauca; conditions: Setaria, 336 h, 8 lb/acre, two weeks after treatment
In short: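 Seeds surface-sown in potting soil one day before spraying; compounds applied pre-emergence at 8 or 4 lbs/acre in 38 gallons/acre spray. Pots held in greenhouse with sub-irrigation only. Injury or control rated visually two weeks after treatment.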

Johnson grass (JG) [3] = assay: Pre-emergence herbicide test; assay type: in vivo, Sorgum helepense; conditions: Sorghum halepense, 336 h, 8 lb/acre, two weeks after treatment
In short: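 Pots seeded one day before spraying; compound applied pre-emergence at 8 lbs/acre (or 4 lbs/acre) in 38 gallons/acre spray volume. Sub-irrigated in greenhouse; injury/control rated visually two weeks after treatment.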

Barnyard grass (BG) [4] = assay: Pre-emergence herbicide test; assay type: in vivo; conditions: Echinochloa crus-galli, 336 h, 8 lb/acre, two weeks after treatment
In short: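 Barnyard grass surface-seeded in potting soil and sprayed pre-emergence one day after seeding, at 8 or 4 lb compound/acre in 38 gal/acre spray volume. Pots kept in greenhouse with sub-irrigation only; injury or control rated visually two weeks after treatment.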

Amaranth pigweed (PW) [5] = assay: Pre-emergence herbicide test; assay type: in vivo, Amaranthus retroflexus; conditions: 336 h, 8 lb/acre, two weeks after treatment
In short: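 Pigweed was surface-seeded in potted soil one day before spraying at 8 lbs compound per acre, or 4 lbs/acre, in 38 gallons per acre. Pots were kept in the greenhouse with sub-irrigation only; injury or control was rated visually two weeks after treatment.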

Turnip (TP) [6] = assay: Pre-emergence herbicide test; assay type: in vivo, Brassica sp.; conditions: Brassica rapa, pre-emergence, 336 h; 8 lb/acre; two weeks after treatment
In short: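 Turnip (Brassica sp.) seeds were surface sown in 3' plastic pots of potting soil, covered with a thin layer of screened soil, and sub-irrigated in greenhouse trays. Pots were seeded one day ahead of treatment, sprayed pre-emergence under a hood with a fixed nozzle and moving belt, then kept in the greenhouse.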

Cotton (CT) [7] = assay: Pre-emergence herbicide test; assay type: in vivo, Gossypium hirsutum var. DPL smooth leaf; conditions: Gossypium hirsutum, 336 h, 8 lb/acre, two weeks after treatment
In short: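 Crop and weed species seeded one day before treatment, then sprayed pre-emergence at 8 lbs actual compound per acre (also 4 lbs/acre formulations) in 38 gallons per acre. Pots kept in greenhouse with sub-irrigation only; injury or control visually rated two weeks after treatment.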

Corn (CN) [8] = assay: Pre-emergence herbicide test; assay type: in vivo; conditions: Zea mays, 336 h, 8 lb/acre, two weeks after treatment
In short: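 Four corn seeds per pot, sown at seed-diameter depth one day before spraying, got soil surface treatment at 8 lbs/acre (4 lbs/acre formulations also prepared) in 38 gallons/acre. Pots were greenhouse-held with sub-irrigation only. Injury or control was scored visually two weeks after treatment.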

Bean (BN) [9] = assay: Pre-emergence herbicide test; assay type: in vivo, Phaseolus vulgaris var. Black Valentine; conditions: Phaseolus vulgaris, 336 h, 8 lb/acre, two weeks after treatment
In short: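 Black Valentine bean was seeded in potting soil one day before spraying. Compound was applied pre-emergence at 8 lbs/acre (also 4 lbs/acre) in 38 gallons per acre. Plants were sub-irrigated and injury or control was rated visually after two weeks.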

Crabgrass (CG) [10] = assay: Post-emergence herbicide test; assay type: in vivo, Digitaria sanquinalis; conditions: Digitaria sanguinalis, post-emergence, 336 h; 8 lb/acre; two weeks after treatment
In short: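 Crabgrass (Digitaria sanquinalis) was surface seeded individually in 3' plastic pots of potting soil, covered with screened soil, and watered by sub-irrigation in greenhouse trays. Planting was staggered so seedlings reached the target stage together. Post-emergence sprays were applied in a hood with a removable belt and fixed nozzle, and control was visually rated two weeks after treatment.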

[11] = test system: Yellow foxtail grass (YF); assay: Post-emergence herbicide test; assay type: in vivo, Setaria glauca; conditions: Setaria, 336 h, 8 lb/acre, two weeks after treatment
In short: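 Potted seedlings grown in greenhouse, planting staggered to reach the target stage together, then sprayed post-emergence at 8 lbs actual compound/acre in 38 gallons/acre (4 lbs/acre formulations also prepared). Sub-irrigated afterwards. Injury or control rated visually two weeks after treatment.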

Johnson grass (JG) [12] = assay: Post-emergence herbicide test; assay type: in vivo, Sorgum helepense; conditions: Sorghum halepense, 336 h, 8 lb/acre, two weeks after treatment
In short: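 Greenhouse pot-grown seedlings sprayed post-emergence at 8 lbs compound per acre (some at 4 lbs/acre) in 38 gallons per acre spray volume. Sub-irrigated thereafter. Injury/control rated visually two weeks after treatment.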

Barnyard grass (BG) [13] = assay: Post-emergence herbicide test; assay type: in vivo; conditions: Echinochloa crus-galli, 336 h, 8 lb/acre, two weeks after treatment
In short: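 Greenhouse pot-grown barnyard grass seedlings sprayed post-emergence at 8 lbs active compound per acre (some at 4 lbs/acre) in 38 gallons per acre, then sub-irrigated. Injury or control rated visually two weeks after treatment.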

Amaranth pigweed (PW) [14] = assay: Post-emergence herbicide test; assay type: in vivo, Amaranthus retroflexus; conditions: 336 h, 8 lb/acre, two weeks after treatment
In short: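 Pot-grown pigweed was sprayed post-emergence at the 1–2 true-leaf stage with compound at rates equivalent to 8 lbs per acre (formulations also prepared for 4 lbs/acre) in 38 gallons per acre, using a hood with fixed nozzle. Plants were sub-irrigated in the greenhouse, and injury or control was rated visually two weeks after treatment.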

Turnip (TP) [15] = assay: Post-emergence herbicide test; assay type: in vivo, Brassica sp.; conditions: Brassica rapa, post-emergence, 336 h; 8 lb/acre; two weeks after treatment
In short: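 A greenhouse post-emergence herbicide test on turnip. Seeds were sown on the surface of potting soil in 3' plastic pots, lightly covered with screened soil and watered from below. Planting was timed so seedlings had 1 or 2 true leaves above the cotyledons at spraying, done in a hood with a fixed nozzle. Control or injury was scored by eye after two weeks.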

Cotton (CT) [16] = assay: Post-emergence herbicide test; assay type: in vivo, Gossypium hirsutum var. DPL smooth leaf; conditions: Gossypium hirsutum, post-emergence, 336 h; 8 lb/acre; two weeks after treatment
In short: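 Cotton (Gossypium hirsutum var. DPL smooth leaf) was grown in 3' plastic pots of potting soil, four seeds per pot, planted at a depth equal to the seed diameter and watered by sub-irrigation. At the stage of expanded cotyledons with the first true leaf 1' long, plants were sprayed post-emergence in a hood with a fixed nozzle over a moving belt. Percent control was rated visually two weeks later.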

Corn (CN) [17] = assay: Post-emergence herbicide test; assay type: in vivo; conditions: Zea mays, 336 h, 8 lb/acre, two weeks after treatment
In short: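 Greenhouse seedlings grown in potting soil and sprayed post-emergence at 8 lbs compound/acre (formulations also made for 4 lbs/acre) in 38 gallons/acre spray volume. Watering by sub-irrigation only. Injury or control rated visually two weeks after treatment.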

Bean (BN) [18] = assay: Post-emergence herbicide test; assay type: in vivo, Phaseolus vulgaris var. Black Valentine; conditions: Phaseolus vulgaris, post-emergence, 336 h; 8 lb/acre; two weeks after treatment
In short: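 Snapbean (Phaseolus vulgaris var. Black Valentine) was tested post-emergence. Four seeds were sown in 3' plastic pots of potting soil at a depth equal to the seed diameter, then sub-irrigated in greenhouse trays. Planting dates were staggered so plants were sprayed once primary leaves had expanded, with the growing point at the primary leaf nodes.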

[19] = test system: variety of crops and weed species; assay: Pre- and post-emergence herbicide tests, overall assessment of Tables III-VI; assay type: in vivo; conditions: data of Tables III-VI
In short: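 Crops and weeds grown in potting soil were sprayed at 8 lbs. compound per acre in 38 gallons per acre, pre-emergence pots seeded one day before treatment. Injury or control was visually rated two weeks after treatment.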

Structure (SMILES)	pest or weed control at 8966.8 g/ha (Crabgrass (CG) [1]) [%]	pest or weed control at 8966.8 g/ha [2] [%]	pest or weed control at 8966.8 g/ha (Johnson grass (JG) [3]) [%]	pest or weed control at 8966.8 g/ha (Barnyard grass (BG) [4]) [%]	pest or weed control at 8966.8 g/ha (Amaranth pigweed (PW) [5]) [%]	pest or weed control at 8966.8 g/ha (Turnip (TP) [6]) [%]	pest or weed control at 8966.8 g/ha (Cotton (CT) [7]) [%]	pest or weed control at 8966.8 g/ha (Corn (CN) [8]) [%]	pest or weed control at 8966.8 g/ha (Bean (BN) [9]) [%]	pest or weed control at 8966.8 g/ha (Crabgrass (CG) [10]) [%]	pest or weed control at 8966.8 g/ha [11] [%]	pest or weed control at 8966.8 g/ha (Johnson grass (JG) [12]) [%]	pest or weed control at 8966.8 g/ha (Barnyard grass (BG) [13]) [%]	pest or weed control at 8966.8 g/ha (Amaranth pigweed (PW) [14]) [%]	pest or weed control at 8966.8 g/ha (Turnip (TP) [15]) [%]	pest or weed control at 8966.8 g/ha (Cotton (CT) [16]) [%]	pest or weed control at 8966.8 g/ha (Corn (CN) [17]) [%]	pest or weed control at 8966.8 g/ha (Bean (BN) [18]) [%]	herbicidal effectiveness / selectivity, in words [19]
C=CCNC(=O)Nc1nnc(C(F)(F)F)s1 [Example 12]	20	10	10	10	10	10	30	10	10	50	40	40	50	70	70	90	40	100	control post-emergence growth, while have little effect in regard to pre-emergence
CNC(=O)Nc1nnc(COC)s1 [Example 25]	20	10	10	10	10	10	100	10	70	30	20	30	20	40	30	100	30	100	more selective when applied to a certain crop or weed species
CNC(=O)Nc1nncs1 [Example 35]	10	10	10	10	10	10	100	10	60	10	10	10	10	100	20	50	10	30	more selective when applied to a certain crop or weed species
